The values that follow are results of earlier work, collected in US8815261B2 (priority 2009, dated 2014).

Molecules are shown by their SMILES. Read-outs that look alike come from different tables or passages of the source.

`O=S(=O)(O)c1ccccc1` [benzenesulfonic acid]: the “logP calculated value of organic acid” value (PubChem value, as in Example 2 (Table 4)) is 0.
Regarding `CC(=O)CCC(=O)O` [levulinic acid], the “logP calculated value of organic acid” value (PubChem value (revised on February, 2009)) was −0.5.
